# Assay results as given in patent US20230399312A1, “SUBSTITUTED PYRIMIDINES AND METHODS OF USE” (THERAVANCE BIOPHARMA R&D IP, LLC, priority 2020, published 2023).
# pKi: −log10 of the molar value.
# How the values were obtained:
# [1] = target: T1, recombinant human ALK5 (TGF-βR1) protein (Homo sapiens, UniProt P36897); assay: Biochemical ALK5 (TGF-βR1) assay to measure pKi (LANCE Ultra ULight kinase assay); conditions: apparent pKi, converted from pIC50 by Cheng-Prusoff
# T1 construct: purchased Life Technologies PR9075A
# T1 sequence (P36897 34-503): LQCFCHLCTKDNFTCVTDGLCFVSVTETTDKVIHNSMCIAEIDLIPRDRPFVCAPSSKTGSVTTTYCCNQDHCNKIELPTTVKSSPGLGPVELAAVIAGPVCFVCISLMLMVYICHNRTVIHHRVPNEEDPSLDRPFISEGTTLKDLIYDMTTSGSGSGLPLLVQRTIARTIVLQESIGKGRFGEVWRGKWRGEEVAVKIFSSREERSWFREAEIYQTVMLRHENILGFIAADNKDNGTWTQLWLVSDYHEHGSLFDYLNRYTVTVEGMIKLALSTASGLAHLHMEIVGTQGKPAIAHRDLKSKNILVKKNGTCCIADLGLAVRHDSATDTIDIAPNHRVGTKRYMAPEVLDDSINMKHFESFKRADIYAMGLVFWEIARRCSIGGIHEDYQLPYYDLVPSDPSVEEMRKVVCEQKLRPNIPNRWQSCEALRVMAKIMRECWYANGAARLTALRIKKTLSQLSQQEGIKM
# In short: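 Dose-response series of each compound were preincubated with the kinase for 60 minutes at room temperature. Phosphorylation proceeded for 60 minutes at 37 °C after ATP addition, was quenched with EDTA, and was detected with a europium anti-phospho-Thr1342 antibody by TR-FRET; pKi was calculated from pIC50.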
# [2] = system: TGF-β-stimulated SMAD3 phosphorylation in BEAS-2B cells; assay: Cellular ALK5 potency assay, inhibition of TGF-β stimulated pSMAD3 formation in BEAS-2B cells; format: cell-based; conditions: Homo sapiens, pSMAD3, TGF-β 10 ng/mL, read-out: BEAS2B pIC50 (converted)
# In short: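 Cells were seeded overnight, rinsed into HEPES/BSA-supplemented HBSS, and dosed with serially diluted compound for 1 h at 37 °C, 5% CO2. TGF-β stimulation (10 ng/mL final) followed for 30 min, then lysis and AlphaLISA pSMAD3 measurement; potency reported as pIC50.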
pKi [1],SMILES,IC50 [2] [nM]
8.50 to 9.40,"Cc1cccc(-c2nccc(Nc3ccnc(Nc4nc(C(=O)OCCN5CCNCC5)cs4)n3)n2)n1 [Compound 551, 2-piperazin-1-ylethyl 2-[[4-[[2-(6-methyl-2-pyridyl)pyrimidin-4-yl]amino]pyrimidin-2-yl]amino]thiazole-4-carboxylate]",200 to 1260
9.50 to 10.40,"Cc1cccc(-c2nccc(Nc3ccnc(Nc4ccc(C(=O)O[C@@H]5CCN(C)C5)cc4)n3)n2)n1 [Compound 464, [(3R)-1-methylpyrrolidin-3-yl] 4-[[4-[[2-(6-methyl-2-pyridyl)pyrimidin-4-yl]amino]pyrimidin-2-yl]amino]benzoate]",25.1 to 158
9.50 to 10.40,"Cc1cccc(-c2nccc(Nc3ccnc(Nc4csc(C(=O)OC[C@@H]5CCCCN5)c4)n3)n2)n1 [Compound 639, [(2S)-2-piperidyl]methyl 4-[[4-[[2-(6-methyl-2-pyridyl)pyrimidin-4-yl]amino]pyrimidin-2-yl]amino]thiophene-2-carboxylate]",25.1 to 158
